Measurements: patent US5457092A, “Methods of promoting bone growth in mammals comprising administration of modified parathyroid hormone” (Gesellschaft fur Biotechnologische Forschung mbH (GBF), priority 1987, dated 1995)

Experiments:
[1] = system: osteoblast enriched rat embryo calvaria cell cultures; assay: CK specific activity in rat embryo calvaria cell cultures; format: cell-based; details: for CK specific activity, effect of fragment (experimental value/control value): 100 nM, 24 h, control 457 ± 46 nmol/min per mg of protein; for increase of CK activity (in words): treated for 24 h
Description: (§1) FIG. 10 is a graphical representation showing the dose dependent stimulation by bPTH (1-84) of osteoblast enriched rat embryo calvaria cell cultures. Experimental details for the determination of cyclic AMP (.quadrature.) (15 min after stimulation) and incorporation of [^3 H]thymidine into DNA ( ) and CK ( ) specific activity (24 h after stimulation) are given below. The results are means ±S.E.M., N≥5. In several cases the S.E.M. was less than the size of the symbol. Control values were: cyclic AMP, 25±5 pmol/mg of protein; DNA, 240±30 c.p.m./μg of DNA; CK, 200±20 nmol/min per mg of protein. Statistical significance of differences between treated and corresponding control groups by Student's T test: *P<0.05; **P<0.01.
(§2) Rat calvaria cultures were treated with fragments of PTH derived from the central portion of the molecule.

[2] = system: chondrocytes from sterna of 16-day-old embryonic chicks; assay: Stimulation of DNA synthesis in chondrocytes by PTH fragments (Table 1); format: cell-based, chick; details: for [^3 H]thymidine incorporation: 4 h; for E/C: stimulated / non-induced control cells
Description: Chondrocytes were isolated from sterna of 16-day-old embryonic chicks according to J. Biol. Chem., 261 (1986) 7997-8001 (10; Yasui et al.) with some modifications. Collagenase was dissolved in Hanks' balanced salt solution (0.4 mM Na2 HPO4, 140 mN NaCl, 5.3 mM KCl, 0.4 mM MgSO4, 1.3 mM CaCl2, 0.4 mM KH2 PO4, 0.5 mM MglC2, 5 mM glucose, 0.05% gentamicin) at a concentration of 286 units/ml. Sterna were treated repeatedly for 30 min with collagenase solution at 37° C. Cells first released by this procedure were discarded because of their very poor responsiveness towards PTH. The collagenase treatment was subsequently repeated leading to a highly homogenous cell population of chondrocytes. The cells obtained by a second collagenase treatment were collected by centrifugation (1000 rpm, 10 min), washed twice with medium (Dulbecco's modified Eagle's medium, GIBCO, supplemented with NaHCO3 (45 mM), glutamine (2 mM), penicillin G/streptomycin (65 mg/1 and 100 mg/l, respectively), Hepes (10 mM, pH 7.2), and FCS (10% v/v) and counted.
The DNA synthesis rate was assayed in monolayer culture by the incorporation of ]^3 H]thymidine into perchloric acid-precipitable material. […] After 17 h, the medium was replaced by 200 μl of serum-free medium. After 4 days, chondrocytes were incubated for 4 h with the appropriate effector and 1μ Ci of [^3 H]thymidine. Subsequently, medium was removed and the cells were washed twice with 200 μl of phosphate-buffered saline (PBS: 137 mM NaCl, 2.7 mN KCl, 1.5 mM KH2 PO4, 0.8 mN Na2 HPO4, pH 7.0). Then cells were lysed by 100 μl of 2% (v/v) Nonidet P- 40 and 2% (w/v) sodium dodecyl sulfate treatment and the perchloric acid-insoluble material was precipitated by adding an equal volume of ice-cold 2% (w/v) perchloric acid in the presence of 1% herring sperm DNA as carrier. After storage for 10 min at -20° C., the precipitated material of each well was transferred to glass fiber filters with a Scatron--As semiautomatic cell harvester. Filters were dried at 80° C. for 20 min, transferred into scintillation vials, and 2 ml of scintillation mixture (scintillator 299; United Technology Pachard) were added. Radioactivity of the samples was determined with a β counter (Minimax; United Technology Pachard). Each test consisted of 5 up to 10 identically treated wells and was repeated at least twice with freshly prepared chondrocytes.
The incorporation of [^3 H]thymidine by non-induced control cells and by stimulated cells is shown by C and E, respectively. The results shown mean ±S.E. for n parallel cell cultures.

[3] = system: osteoblast enriched rat embryo calvaria cell cultures; assay: DNA synthesis ([3H]thymidine incorporation) in rat embryo calvaria cell cultures; format: cell-based; details: 100 nM; 24 h; control 624 ± 73 c.p.m./μg of DNA
Description: as §1

[4] = system: osteoblast enriched rat embryo calvaria cell cultures; assay: Cyclic AMP production in rat embryo calvaria cell cultures; format: cell-based; details: 100 nM; 15 min; control 29 ± 2.9 pmol/mg of protein
Description: as §1, §2

[5] = system: ROS 17/2.8 osteoblast-like cells; assay: Cyclic AMP production in ROS 17/2.8 osteoblast-like cells; format: cell-based, rat
Description: When cultures of the widely used model for osteoblasts, the osteoblast-likeclone of rat osteosarcoma, ROS 17/2.8 (Endocrinology (Baltimore), 107 (1980) 1494-1503=12; Majeska et al.), were incubated with full-length PTH and PTH fragments (Table 4), cyclic AMP production was stimulated only by bPTH(1-84) and hPTH(1-34), whereas hPTH(25-39), hPTH(27-48), hPTH(28-48) and hPTH(34-47) were ineffective.

[6] = system: ROS 17/2.8 osteoblast-like cells; assay: CK specific activity in ROS 17/2.8 osteoblast-like cells; format: cell-based, rat
[7] = system: ROS 17/2.8 osteoblast-like cells; assay: DNA synthesis in ROS 17/2.8 osteoblast-like cells; format: cell-based, rat

In the case of “hPTH(30-47): PTH fragment 30-47, human source; comparative example (DVHNFVALGAPLAPRDAG; Parathyroid hormone; UniProt P01270 61-78, looked up, fragment) [reference compound]”, the “CK specific activity, effect of fragment (experimental value/control value)” value [1] is reported as 1.27 ± 0.03, the “increase of CK activity (in words)” value [1] is reported as “slightly stimulatory” and the “[^3 H]thymidine incorporation” value ([2]; 5.1 × 10^-5 mol/l, control 139 ± 6) is reported as 248 ± 31 cpm. The E/C ([2]; 5.1 × 10^-5 mol/l) was 1.78, the “[^3 H]thymidine incorporation” value ([2]; 5.1 × 10^-6 mol/l, control 139 ± 6) was 193 ± 20 cpm and the E/C ([2]; 5.1 × 10^-6 mol/l) was 1.39. For the same substance, the “[^3 H]thymidine incorporation” value ([2]; 5.1 × 10^-7 mol/l, control 139 ± 6) was 222 ± 19 cpm, the E/C ([2]; 5.1 × 10^-7 mol/l) was 1.60 and the “[^3 H]thymidine incorporation” value ([2]; 5.1 × 10^-8 mol/l, control 139 ± 6) was 169 ± 23 cpm. The E/C ([2]; 5.1 × 10^-8 mol/l) was 1.22, the “[3H)Thymidine incorporation, effect of fragment (experimental value/control value)” value [3] was 1.86 ± 0.18 and the “Cyclic AMP concentration, effect of fragment (experimental value/control value)” value [4] was 1.00 ± 0.22.

“hPTH(28-39): PTH fragment 28-39, human source (LQDVHNFVALGA; Parathyroid hormone; UniProt P01270 59-70, looked up, fragment)” was tested, and the “[^3 H]thymidine incorporation” value ([2]; 7.6 × 10^-4 mol/l, control 324 ± 18) was 387 ± 41 cpm, the E/C ([2]; 7.6 × 10^-4 mol/l) was 1.19 and the “[^3 H]thymidine incorporation” value ([2]; 7.6 × 10^-5 mol/l, control 324 ± 18) was 399 ± 47 cpm. For the same substance, the E/C ([2]; 7.6 × 10^-5 mol/l) was 1.23, the “[^3 H]thymidine incorporation” value ([2]; 7.6 × 10^-6 mol/l, control 324 ± 18) was 324 ± 45 cpm and the E/C ([2]; 7.6 × 10^-6 mol/l) was 1.00. The “[^3 H]thymidine incorporation” value ([2]; 7.6 × 10^-7 mol/l, control 324 ± 18) was 473 ± 74 cpm, the E/C ([2]; 7.6 × 10^-7 mol/l) was 1.46 and the “[^3 H]thymidine incorporation” value ([2]; 7.6 × 10^-8 mol/l, control 324 ± 18) was 319 ± 39 cpm. For the same substance, the E/C ([2]; 7.6 × 10^-8 mol/l) was 0.97.

“hPTH(29-47): PTH fragment 29-47, human source (QDVHNFVALGAPLAPRDAG; Parathyroid hormone; UniProt P01270 60-78, looked up, fragment)” was tested, and the “CK specific activity, effect of fragment (experimental value/control value)” value [1] was 1.67 ± 0.13, the “increase of CK activity (in words)” value [1] was “stimulatory but to a lesser degree” and the “[^3 H]thymidine incorporation” value ([2]; 4.8 × 10^-5 mol/l, control 139 ± 6) was 273 ± 30 cpm. The E/C ([2]; 4.8 × 10^-5 mol/l) was 1.96, the “[^3 H]thymidine incorporation” value ([2]; 4.8 × 10^-6 mol/l, control 139 ± 6) was 225 ± 20 cpm and the E/C ([2]; 4.8 × 10^-6 mol/l) was 1.62. The “[^3 H]thymidine incorporation” value ([2]; 4.8 × 10^-7 mol/l, control 139 ± 6) was 273 ± 33 cpm, the E/C ([2]; 4.8 × 10^-7 mol/l) was 1.96 and the “[^3 H]thymidine incorporation” value ([2]; 4.8 × 10^-8 mol/l, control 139 ± 6) was 138 ± 15 cpm. For the same substance, the E/C ([2]; 4.8 × 10^-8 mol/l) was 0.99, the “[3H)Thymidine incorporation, effect of fragment (experimental value/control value)” value [3] was 1.96 ± 0.14 and the “Cyclic AMP concentration, effect of fragment (experimental value/control value)” value [4] was 0.57 ± 0.47.

In the case of “hPTH(33-47): PTH fragment 33-47, human source; inactive fragment (NFVALGAPLAPRDAG; Parathyroid hormone; UniProt P01270 64-78, looked up, fragment) [reference compound]”, the “increase of CK activity (in words)” value [1] is reported as “inactive”.

For “hPTH(29-39): PTH fragment 29-39 as printed; probably a misprint of hPTH(25-39) (QDVHNFVALGA; Parathyroid hormone; UniProt P01270 60-70, looked up, fragment)”, the “increase of CK activity (in words)” value [1] was “maximally active”.

In the case of “hPTH(27-48): PTH fragment 27-48 as printed; probably a misprint of hPTH(28-47) (KLQDVHNFVALGAPLAPRDAGS; Parathyroid hormone; UniProt P01270 58-79, looked up, fragment)”, the “stimulation of cyclic AMP production (in words)” value [5] is reported as “ineffective”.

“hPTH(32-47): PTH fragment 32-47 as printed; at this place probably a misprint of hPTH(28-47) (HNFVALGAPLAPRDAG; Parathyroid hormone; UniProt P01270 63-78, looked up, fragment)” was tested, and the “increase of CK activity (in words)” value [1] was “maximally active”.

For “hPTH(31-47): PTH fragment 31-47, human source; comparative example (VHNFVALGAPLAPRDAG; Parathyroid hormone; UniProt P01270 62-78, looked up, fragment) [reference compound]”, the “increase of CK activity (in words)” value [1] was “inactive”, the “[^3 H]thymidine incorporation” value ([2]; 5.3 × 10^-5 mol/l, control 139 ± 6) was 176 ± 8 cpm and the E/C ([2]; 5.3 × 10^-5 mol/l) was 1.27. For the same substance, the “[^3 H]thymidine incorporation” value ([2]; 5.3 × 10^-6 mol/l, control 139 ± 6) was 178 ± 35 cpm, the E/C ([2]; 5.3 × 10^-6 mol/l) was 1.28 and the “[^3 H]thymidine incorporation” value ([2]; 5.3 × 10^-7 mol/l, control 139 ± 6) was 178 ± 24 cpm. For the same substance, the E/C ([2]; 5.3 × 10^-7 mol/l) was 1.28, the “[^3 H]thymidine incorporation” value ([2]; 5.3 × 10^-8 mol/l, control 139 ± 6) was 165 ± 20 cpm and the E/C ([2]; 5.3 × 10^-8 mol/l) was 1.19.

In the case of “hPTH(24-47): PTH fragment 24-47 as printed; probably a misprint of hPTH(34-47) (LRKKLQDVHNFVALGAPLAPRDAG; Parathyroid hormone; UniProt P01270 55-78, looked up, fragment)”, the “stimulation of CK activity (in words)” value [6] is reported as “stimulated by all of the cell fragments tested except” and the “stimulation of DNA synthesis (in words)” value [7] is reported as “stimulated by all of the cell fragments tested except”.
